From US12667546B2, “Methods for manipulating cell state transitions in cancer” (AGENCY FOR SCIENCE, TECHNOLOGY AND RESEARCH, priority 2018, dated 2026)

Legend:
[1] = tested on: NAMEC8; experiment: Cell morphology of treated NAMEC8; format: cell-based, human; settings: bexarotene, TTNPB, SGC-CBP30, UNC0642, A-485 1 μM, LLY-283, GSK591 20 nM, C-IN-1 500 nM
Summary of the method: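 HMLE cells immortalized with hTERT and SV-40 Large T, differentially trypsinized (0.05% trypsin, 1 min) at 50% confluency and replated at ~200 cells/well; wells screened for stably propagating mesenchymal-morphology populations. NAMEC8 is non-clonal, from at least 200 mesenchymal cells; maintained in MEGM.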

[2] = tested on: NAMEC8 and BC2.2; experiment: Gene expression of ER target genes; format: cell-based, human
Method: (§1) Cells were rinsed twice in ice-cold PBS. Total RNA was extracted using Trizol (Invitrogen) and column-purified with RNeasy kits (Qiagen). cDNA synthesis was performed with 500 ng of total RNA at 37° C. for 2 h using the SuperScript III First-Strand Synthesis System (Thermo Fisher Scientific), and subsequently diluted 5-fold. mRNA levels were measured with gene-specific primers listed below using the ABI Prism 7900HT Sequence Detection System 2.2 (Applied Biosystems). Results were normalized to GAPDH and analyzed using SDS 2.2 software.

[3] = tested on: NAMEC8-SERPINE1prom-Luc cells; experiment: Renilla-luciferase (constitutive CMV promoter) readout for cell numbers; format: cell-based, human; settings: Homo sapiens, 72 h, primary screen; Renilla as readout for cell numbers; relative to DMSO; read-out: % Avr Renilla from DMSO
[4] = tested on: NAMEC8, SUM159 and BC2.2; experiment: Oxygen consumption rate with palmitate (Seahorse); format: cell-based, human; settings: supplemented with palmitate
Method: FAO rate was measured using the mitochondrial stress test on the XF96 analyzer (Seahorse Bioscience) according to manufacturer's instructions. Cells were seeded in 96well XF96 cell culture plates at a density of 9000 cells/well in complete media. Cells were then incubated with XF modified DMEM assay medium (Seahorse Bioscience) supplemented with 1 mM glutamine, 0.5 mM glucose, 1% FBS and 0.5 mM carnitine the next day for 18 h. On the day of the assay, cells were incubated with FAO assay medium (KHB: 111 mM NaCl, 4.7 mM KCl, 1.25 mM CaCl2), 2 mM MgSO4, 1.2 mM NaH2 PO4 supplemented with 2.5 mM glucose, 0.5 mM carnitine, 5 mM HEPES, adjusted to pH7.4) 45 min prior to the assay in a non-CO2 incubator. Seahorse XF Cell Mito Stress Test compounds (2 μM oligomycin, 2 μM FCCP, 2 μM rotenone). […] Just prior to starting the assay, XF Palmitate-BSA FAO substrate or BSA was added to the cells. Plate was then put into the XF96 analyzer and the XF Cell Mito Stress Test was run using the recommended protocol. Rate of FAO was calculated by the difference in maximal respiration when Palmitate-BSA FAO substrate was supplemented relative to BSA control.

[5] = tested on: BC24.1 and BC33.1; experiment: EMT and lineage markers in patient-derived ER+, luminal-like tumor cell lines; format: cell-based, human
Method: Breast tissue biopsies from cancer patients were obtained from National Cancer Centre Singapore (NCCS) with patients' consent and under an IRB approved protocol (2015/2976). Tissue was digested with 1 mg/ml collagenase IV (Gibco) and 1 mg/ml dispase II (Thermo Fisher Scientific) in F12 media for 2 h while shaking in a 37° C. incubator. Cell suspension was then put through a cell strainer and centrifuged for 10 min at 1500 rpm. Cells were then washed twice and resuspended in media before seeding on irradiated 3T3 feeders as previously described. When confluent, sub-culturing was carried out by first lifting the feeders using 0.15% trypsin for 2 min. […]
as §1
Cells were harvested and scraped from culture dishes in ice-cold PBS. […] Protein concentrations were determined using Coomaisse Blue. […]

[6] = tested on: NAMEC8-Ras, BC2.2 and BC22.1 tumors; experiment: Xenograft treatment with oral bexarotene; format: in vivo, NSG mice
From the text: Primary human breast cancer samples were obtained from the National Cancer Centre Singapore (NCCS) with patients' consent and under an IRB approved protocol (2015/2976). All animal experiments were approved by the Agency for Science Technology and Research Singapore-Biological Resource Centre IACUC (Protocol number 171286). Patient-derived breast tumor fragments (approximately 3×1×1 mm) were inserted bilaterally into the inguinal mammary fat pads of 6-8 week-old NSG female mice for initial establishment of tumors, and subsequently expanded in NSG mice once established. In this study, established tumor fragments of BC2.2 were implanted into cohorts of 6-8 week-old female NSG mice. For BC22.1, 1×10^6 cells were injected subcutaneously into both flanks of NSG mice.
All animal experiments were approved by the Agency for Science Technology and Research Singapore-Biological Resource Centre IACUC (Protocol number 140940). For pre-treated SUM159 and MCF7-Ras cells, 1×10^6 cells were suspended in 100 μl media containing 50% matrigel and injected subcutaneously into both flanks of female NSG mice. The NSG mice were checked for tumor by palpation once a week and tumors were harvested when they reached ˜15 mm in diameter. For treatment in NSG mice, 1×10^5 NAMEC8-Ras cells were suspended in 100 μl media containing 50% matrigel and injected subcutaneously into both flanks of NSG mice. The NSG mice were checked for tumor formation by palpation and when tumors were about 3 mm, mice were randomized into two groups: vehicle (5% DMSO in corn oil) and treatment (Bexarotene, 100 mg/kg/day oral dosing). Tumor size was measured every week using Vernier calipers and mice were sacrificed when tumors reached ˜15 mm or after ˜4 weeks of treatment. For patient-derived cells, 2×10^6 cells were injected subcutaneously per site in NSG mice. […]
The tumor sections were fixed overnight in 4% paraformaldehyde, immersed in 70% ethanol, and sent to the Advanced Molecular Pathlogy Lab, IMCB for paraffinization. […] The fluorescence image analysis and the fluorescence overlay image were obtained with the Axio Vision Rel. […]

C=C(c1ccc(C(=O)O)cc1)c1cc2c(cc1C)C(C)(C)CCC2(C)C [Bexarotene]
cell morphology [1]: dramatic change in morphology from scattered, spindle and fibroblastic-like cells to an epithelial-like morphology
expression of ER target genes (ABCA3, NRIP1, TFF1, CREB1) [2]: strongly elevated
viability at 10 µM [3]: 87.5%
oxygen consumption rate (OCR) [4]: lower OCR when supplemented with palmitate
expression of epithelial/mesenchymal or luminal/basal markers [5]: no dramatic change in the expression of the epithelial/mesenchymal or luminal/basal markers
tumor growth rate and burden ([6]; 100 mg/kg/day oral dosing vs vehicle): significant reductions in tumor growth rate and burden
retinoid target gene expressions in tumors ([6]; STRA6, CRAPBP2, DHRS3, ANGPTL4, IP6K3, ACSL5): upregulated by at least two-fold
EMT markers in tumor sections (immunofluorescence) ([6]; tumors from bexarotene-treated mice): expression of E-cadherin, and the loss of fibronectin
